{"source": "patent US7070778B2", "about": "“Therapeutical combination against cancer” (Laboratoire Goemar SA, priority 2003, dated 2006)", "tested_on": "BT-474 human breast carcinoma", "experiment": "Effect on the tumor growth: BT-474 human breast carcinoma xenograft in nude mice", "format": "in vivo", "conditions": "for Average daily weight of the tumor: Group 6: Paclitaxel 16 mg/kg i.p. once a day for 5 days", "procedure": "Female nude mice (nulnu) between 5 and 6 weeks of age weighing approximately 20 g were obtained from Harlan, Inc. (Madison, Wis.). The BT-474 human breast carcinoma cell line was obtained from the American Type Culture Collection (ATCC). BT-474 was established by E. Lasfargues and W. G. Coutinho from a solid carcinoma of the breast obtained from a patient (2). Twenty-one-day release 17β-estradiol pellets at 0.25 mg (Innovative Research of America) were implanted subcutaneously into each mouse. The following day, animals were implanted s.c. by trocar with fragments of human tumor carcinomas harvested from s.c. growing tumors in nude mice hosts. When the tumors were approximately 40 mg in size (24 days following inoculation), the animals were pair-matched into treatment and control groups. All of the groups contained 9 mice. All of the animals were ear-tagged and followed individually throughout the experiment.\nThe mice of each group were administered intra peritoneally with 2 ml of the following composition:\nGroup 1: (control) sterile H2O, 5 times a day\nMice were weighed twice weekly, and tumor measurements were obtained using calipers twice weekly, starting on Day 1. These tumor measurements were converted to mg tumor weight by the standard formula, (W^2×L)/2 (2). The experiment was terminated when the control group tumor size reached an average of 500 mg. Upon termination (Day 46), the mice were weighed, sacrificed and their tumors were excised. The tumors were weighed, and the mean tumor weight per group was calculated.\nWith this agent, the final weight of a given tumor was subtracted from its own weight at the start of treatment on Day 1. This difference was divided by the initial tumor weight to give the % regression. A mean % tumor regression was calculated from data from mice in a group that experienced tumor regressions."}
{"compound": "CC(=O)O[C@H]1C(=O)[C@@]2(C)[C@H]([C@H](OC(=O)c3ccccc3)[C@]3(O)C[C@H](OC(=O)[C@H](O)[C@@H](NC(=O)c4ccccc4)c4ccccc4)C(C)=C1C3(C)C)[C@]1(OC(C)=O)CO[C@@H]1C[C@@H]2O", "note": "[Paclitaxel]", "values": [{"measurement": "tumor regression (in words)", "setting": "Paclitaxel 16 mg/kg i.p. once a day for 5 days", "result": "caused tumor regression"}, {"measurement": "Average daily weight of the tumor", "setting": "day 5", "result": 3906, "unit": "mg"}, {"measurement": "Average daily weight of the tumor", "setting": "day 9", "result": 54.2, "unit": "mg"}, {"measurement": "Average daily weight of the tumor", "setting": "day 16", "result": 77.3, "unit": "mg"}, {"measurement": "Average daily weight of the tumor", "setting": "day 19", "result": 79.4, "unit": "mg"}, {"measurement": "Average daily weight of the tumor", "setting": "day 23", "result": 108.0, "unit": "mg"}, {"measurement": "Average daily weight of the tumor", "setting": "day 26", "result": 123.8, "unit": "mg"}, {"measurement": "Average daily weight of the tumor", "setting": "day 29", "result": 149.5, "unit": "mg"}, {"measurement": "Average daily weight of the tumor", "setting": "day 32", "result": 188.8, "unit": "mg"}, {"measurement": "Average daily weight of the tumor", "setting": "day 36", "result": 220.3, "unit": "mg"}, {"measurement": "Average daily weight of the tumor", "setting": "day 39", "result": 244.8, "unit": "mg"}, {"measurement": "Average daily weight of the tumor", "setting": "day 43", "result": 299.6, "unit": "mg"}, {"measurement": "Average daily weight of the tumor", "setting": "day 46", "result": 376.3, "unit": "mg"}]}
